Tests used:
[1] = target: T1, Human PDGFRα, cytoplasmic domain (GST-PDGFRα) (Homo sapiens, UniProt P16234); experiment: Human PDGFRα biochemical inhibition assay (off-chip Mobility Shift Assay)
T1 construct: made in house

[2] = target: T2, Human PDGFRβ, cytoplasmic domain (GST-PDGFRβ) (Homo sapiens, UniProt P09619); experiment: Human PDGFRβ biochemical inhibition assay (off-chip Mobility Shift Assay)
T2 construct: made in house
In short: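 GST-tagged cytoplasmic domain (aa 557-1106) from baculovirus was incubated 1 h at room temperature with compound, CSKtide, ATP at Km and Mg²⁺ in HEPES buffer, pH 7.5. Phosphorylated and unphosphorylated peptide were separated by off-chip mobility shift, and the product ratio P/(P+S) gave percent inhibition.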

T1 sequence (P16234 550-1089 T674I): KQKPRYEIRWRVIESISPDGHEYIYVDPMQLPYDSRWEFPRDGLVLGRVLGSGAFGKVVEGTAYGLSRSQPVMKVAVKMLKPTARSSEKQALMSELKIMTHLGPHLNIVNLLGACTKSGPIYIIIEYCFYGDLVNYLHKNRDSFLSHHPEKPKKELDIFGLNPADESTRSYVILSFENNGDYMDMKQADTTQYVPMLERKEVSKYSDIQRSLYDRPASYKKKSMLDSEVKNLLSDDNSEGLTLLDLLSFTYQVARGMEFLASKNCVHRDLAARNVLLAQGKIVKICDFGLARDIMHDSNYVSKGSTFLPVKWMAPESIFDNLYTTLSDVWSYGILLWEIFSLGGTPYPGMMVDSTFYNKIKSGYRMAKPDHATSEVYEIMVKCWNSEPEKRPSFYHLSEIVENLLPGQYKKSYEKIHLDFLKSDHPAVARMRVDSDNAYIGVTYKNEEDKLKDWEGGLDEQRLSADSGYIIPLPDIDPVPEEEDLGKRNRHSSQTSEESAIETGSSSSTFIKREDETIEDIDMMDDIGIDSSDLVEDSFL
T2 sequence (P09619 with tags, fused parts or gaps): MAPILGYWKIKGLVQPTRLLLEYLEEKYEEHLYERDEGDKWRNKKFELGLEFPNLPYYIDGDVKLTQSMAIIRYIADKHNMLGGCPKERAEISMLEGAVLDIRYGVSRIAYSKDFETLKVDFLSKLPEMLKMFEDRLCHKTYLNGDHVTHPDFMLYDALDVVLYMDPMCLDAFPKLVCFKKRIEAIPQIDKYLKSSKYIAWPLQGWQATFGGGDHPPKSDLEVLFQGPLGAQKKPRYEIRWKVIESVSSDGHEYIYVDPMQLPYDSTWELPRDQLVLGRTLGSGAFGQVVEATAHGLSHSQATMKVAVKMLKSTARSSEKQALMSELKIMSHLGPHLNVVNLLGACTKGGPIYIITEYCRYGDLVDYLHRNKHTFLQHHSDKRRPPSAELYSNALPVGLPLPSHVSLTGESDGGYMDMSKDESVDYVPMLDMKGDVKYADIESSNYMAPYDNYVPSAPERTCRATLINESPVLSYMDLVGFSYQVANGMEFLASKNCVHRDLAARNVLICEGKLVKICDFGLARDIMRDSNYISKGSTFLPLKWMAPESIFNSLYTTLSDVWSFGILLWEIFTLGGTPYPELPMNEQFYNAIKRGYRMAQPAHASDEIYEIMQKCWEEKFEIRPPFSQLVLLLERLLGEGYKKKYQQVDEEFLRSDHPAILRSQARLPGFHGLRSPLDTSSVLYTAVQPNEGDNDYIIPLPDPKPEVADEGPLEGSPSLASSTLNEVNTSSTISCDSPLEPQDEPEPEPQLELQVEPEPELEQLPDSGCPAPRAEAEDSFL

Structure (SMILES) | IC50 [1] [nM] | IC50 [2] [nM]
Cc1n[nH]c2ncc(N[C@@H](C)c3cccc(NC(=O)c4cc(C(F)(F)F)n(C)n4)c3)nc12 [Compound 547, (S)-1-methyl-N-(3-(1-((3-methyl-1H-pyrazolo[3,4-b]pyrazin-5-yl)amino)ethyl)phenyl)-5-(trifluoromethyl)-1H-pyrazole-3-carboxamide] | < 300 | < 300
CCn1cc2ncc(N[C@@H](C)c3cccc(NC(=O)Cc4ccc5c(n4)OCCC5)c3)nc2n1 [Compound 720, (S)-2-(3,4-dihydro-2H-pyrano[2,3-b]pyridin-7-yl)-N-(3-(1-((2-ethyl-2H-pyrazolo[3,4-b]pyrazin-6-yl)amino)ethyl)phenyl)acetamide] | < 300 | ≥ 1000
CCn1cc2ncc(N[C@@H](C)c3cc(NC(=O)c4cnn(C(C)C)c4)ccc3F)nc2n1 [Compound 313, (S)-N-(3-(1-((2-ethyl-2H-pyrazolo[3,4-b]pyrazin-6-yl)amino)ethyl)-4-fluorophenyl)-1-isopropyl-1H-pyrazole-4-carboxamide] | < 300 | < 300
C[C@H](Nc1cnc2[nH]ccc2n1)c1cccc(NC(=O)c2ccc(C3CC3)nc2)c1 [Compound 594, (S)-N-(3-(1-((5H-pyrrolo[2,3-b]pyrazin-2-yl)amino)ethyl)phenyl)-6-cyclopropylnicotinamide] | < 300 | < 300
CCn1cc2ncc(N[C@@H](C)c3cccc(NC(=O)c4cnc(C5CCCC5)s4)c3)nc2n1 [Compound 398, (S)-2-cyclopentyl-N-(3-(1-((2-ethyl-2H-pyrazolo[3,4-b]pyrazin-6-yl)amino)ethyl)phenyl)thiazole-5-carboxamide] | < 300 | < 300
Cc1cncc(C(=O)Nc2cccc([C@H](C)Nc3cnc4[nH]c(-c5cnn(C)c5)nc4n3)c2)c1 [Compound 603, (S)-5-methyl-N-(3-(1-((2-(1-methyl-1H-pyrazol-4-yl)-1H-imidazo[4,5-b]pyrazin-5-yl)amino)ethyl)phenyl) nicotinamide] | < 300 | < 300
C[C@H](Nc1cnc2cnn(C)c2n1)c1cccc(NC(=O)c2ccc(C3CC3)s2)c1 [Compound 136, (S)-5-cyclopropyl-N-(3-(1-((1-methyl-1H-pyrazolo[3,4-b]pyrazin-6-yl)amino)ethyl)phenyl)thiophene-2-carboxamide] | < 300 | < 300
CCn1cc2ncc(N[C@@H](C)c3cccc(NC(=O)c4ccc(CN5CCN(C)C(=O)C5)c(C)c4)c3)nc2n1 [Compound 479, (S)-N-(3-(1-((2-ethyl-2H-pyrazolo[3,4-b]pyrazin-6-yl)amino)ethyl)phenyl)-3-methyl-4-((4-methyl-3-oxopiperazin-1-yl)methyl)benzamide] | < 300 | < 300
Cc1cncc(C(=O)Nc2cccc([C@H](C)Nc3cnc4[nH]nc(C)c4n3)c2)c1 [Compound 16, (S)-5-methyl-N-(3-(1-((3-methyl-1H-pyrazolo[3,4-b]pyrazin-5-yl)amino)ethyl)phenyl)nicotinamide] | < 300 | < 300
C[C@H](Nc1cnc2cc(C3CC3)sc2n1)c1cc(NC(=O)c2ccc(C(F)(F)F)nc2)ccc1F [Compound 616, (S)-N-(3-(1-((6-cyclopropylthieno[2,3-b]pyrazin-3-yl)amino)ethyl)-4-fluorophenyl)-6-(trifluoromethyl)nicotinamide] | < 300 | < 300
CCOCc1cncc(C(=O)Nc2cccc([C@H](C)Nc3cnc4cnn(C)c4n3)c2)c1 [Compound 230, (S)-5-(ethoxymethyl)-N-(3-(1-((1-methyl-1H-pyrazolo[3,4-b]pyrazin-6-yl)amino)ethyl)phenyl)nicotinamide] | < 300 | < 300
Cc1n[nH]c2ncc(N[C@@H](C)c3cccc(NC(=O)c4cnn(C5CC5)c4)c3)nc12 [Compound 543, (S)-1-cyclopropyl-N-(3-(1-((3-methyl-1H-pyrazolo[3,4-b]pyrazin-5-yl)amino)ethyl)phenyl)-1H-pyrazole-4-carboxamide] | < 300 | < 300

Source: patent US20230102554A1 (GB002, INC., priority 2019, published 2023)
